Data from ChEMBL document CHEMBL1144507, “Synthesis and antifungal activity of (Z)-5-arylidenerhodanines” (2007).
Values after ≈ are worked out from the molar mass of the structure shown.

Legend:
Nannizzia gypsea = test: Antifungal activity against Microsporum gypseum C115 after 48 hrs; assay type: functional
Cryptococcus neoformans [1] = test: Antifungal activity against […] IM 00319 after 48 hrs; assay type: functional
Cryptococcus neoformans [2] = test: Antifungal activity against […] IM 042074 after 48 hrs; assay type: functional
Nakaseomyces glabratus = test: Antifungal activity against Candida glabrata C115-2000 after 48 hrs; assay type: functional
Trichophyton benhamiae [3] = test: Antifungal activity against Trichophyton mentagrophytes ATCC 9972 after 48 hrs; assay type: functional, Arthroderma benhamiae; settings: ATCC 9972, 48 h
Cryptococcus neoformans [4] = test: Antifungal activity against […] IM 031706 after 48 hrs; assay type: functional
Candida albicans [5] = test: Antifungal activity against Candida albicans C129-2000 after 48 hrs; assay type: functional
Candida albicans [6] = test: Antifungal activity against Candida albicans C127-2000 after 48 hrs; assay type: functional
Trichophyton benhamiae [7] = test: Antifungal activity against Trichophyton mentagrophytes C943 after 48 hrs; assay type: functional, Arthroderma benhamiae
Candida parapsilosis = test: Antifungal activity against Candida parapsilosis C124-2000 after 48 hrs; assay type: functional; settings: Lodderomyces parapsilosis
Trichophyton benhamiae [8] = test: Antifungal activity against Trichophyton mentagrophytes C539 after 48 hrs; assay type: functional, Arthroderma benhamiae
Cryptococcus neoformans [9] = test: Antifungal activity against […] IM 961951 after 48 hrs; assay type: functional
Clavispora lusitaniae = test: Antifungal activity against Candida lusitaniae C131-2000 after 48 hrs; assay type: functional
Cryptococcus neoformans [10] = test: Antifungal activity against […] IM 052470 after 48 hrs; assay type: functional
Trichophyton benhamiae [11] = test: Antifungal activity against Trichophyton mentagrophytes C108 after 48 hrs; assay type: functional, Arthroderma benhamiae
Candida albicans [12] = test: Antifungal activity against Candida albicans ATCC 10231 after 48 hrs; assay type: functional; settings: ATCC 10231, 48 h
Candida albicans [13] = test: Antifungal activity against Candida albicans C128-2000 after 48 hrs; assay type: functional
Candida albicans [14] = test: Antifungal activity against Candida albicans C126-2000 after 48 hrs; assay type: functional
Aspergillus flavus = test: Antifungal activity against Aspergillus flavus ATCC 9170 after 48 hrs; assay type: functional; settings: ATCC 9170, 48 h
Cryptococcus neoformans [15] = test: Antifungal activity against […] ATCC 32264 after 48 hrs; assay type: functional; settings: ATCC 32264, 48 h
Aspergillus fumigatus = test: Antifungal activity against Aspergillus fumigatus ATCC 26934 after 48 hrs; assay type: functional; settings: ATCC 26934, 48 h
Pichia kudriavzevii = test: Antifungal activity against Candida krusei C117-2000 after 48 hrs; assay type: functional
Cryptococcus neoformans [16] = test: Antifungal activity against Candida neoformans IM 983040 after 48 hrs; assay type: functional
Candida albicans [17] = test: Antifungal activity against Candida albicans C125-2000 after 48 hrs; assay type: functional
Torulaspora delbrueckii = test: Antifungal activity against Candida coliculosa C122-2000 after 48 hrs; assay type: functional
Cryptococcus neoformans [18] = test: Antifungal activity against […] IM 031631 after 48 hrs; assay type: functional; settings: Cryptococcus neoformans, 48 h
Aspergillus niger = test: Antifungal activity against Aspergillus niger ATCC 9029 after 48 hrs; assay type: functional; settings: ATCC 9029, 48 h
Trichophyton benhamiae [19] = test: Antifungal activity against Trichophyton mentagrophytes C364 after 48 hrs; assay type: functional, Arthroderma benhamiae
Cryptococcus neoformans [20] = test: Antifungal activity against Cryptococcus neoformans ATCC 32264 after 48 hrs; assay type: functional; settings: ATCC 32264, 48 h
Trichophyton benhamiae [21] = test: Antifungal activity against Trichophyton mentagrophytes C738 after 48 hrs; assay type: functional, Arthroderma benhamiae
Cryptococcus neoformans [22] = test: Antifungal activity against […] IM 972751 after 48 hrs; assay type: functional
Trichophyton rubrum = test: Antifungal activity against Trichophyton rubrum C113 after 48 hrs; assay type: functional
Candida albicans [23] = test: Antifungal activity against Candida albicans C130-2000 after 48 hrs; assay type: functional
Kluyveromyces marxianus = test: Antifungal activity against Candida kefyr C123-2000 after 48 hrs; assay type: functional
Cryptococcus neoformans [24] = test: Antifungal activity against […] IM 972724 after 48 hrs; assay type: functional
Saccharomyces cerevisiae = test: Antifungal activity against Saccharomyces cerevisiae ATCC 9763 after 48 hrs; assay type: functional; settings: ATCC 9763, 48 h
Candida tropicalis = test: Antifungal activity against Candida tropicalis C131-1997 after 48 hrs; assay type: functional
Cryptococcus neoformans [25] = test: Antifungal activity against […] IM 983036 after 48 hrs; assay type: functional

- MIC (Nannizzia gypsea): 15.6 µg/mL (≈ 53.9 µM)
- MIC (Cryptococcus neoformans [1]): 7.8 µg/mL (≈ 27 µM)
- MIC50 (Cryptococcus neoformans [1]): 3.9 µg/mL (≈ 13.5 µM)
- MIC80 (Cryptococcus neoformans [1]): 3.9 µg/mL (≈ 13.5 µM)
- MIC (Cryptococcus neoformans [2]): 7.8 µg/mL (≈ 27 µM)
- MIC50 (Cryptococcus neoformans [2]): 1.9 µg/mL (≈ 6.57 µM)
- MIC80 (Cryptococcus neoformans [2]): 7.8 µg/mL (≈ 27 µM)
- MIC (Nakaseomyces glabratus): 3.9 µg/mL (≈ 13.5 µM)
- MIC50 (Nakaseomyces glabratus): 3.9 µg/mL (≈ 13.5 µM)
- MIC80 (Nakaseomyces glabratus): 3.9 µg/mL (≈ 13.5 µM)
- MIC (Trichophyton benhamiae [3]): 3.9 µg/mL (≈ 13.5 µM)
- MIC (Cryptococcus neoformans [4]): 7.8 µg/mL (≈ 27 µM)
- MIC50 (Cryptococcus neoformans [4]): 7.8 µg/mL (≈ 27 µM)
- MIC80 (Cryptococcus neoformans [4]): 7.8 µg/mL (≈ 27 µM)
- MIC (Candida albicans [5]): 31.2 µg/mL (≈ 108 µM)
- MIC50 (Candida albicans [5]): 15.6 µg/mL (≈ 53.9 µM)
- MIC80 (Candida albicans [5]): 31.2 µg/mL (≈ 108 µM)
- MIC (Candida albicans [6]): 15.6 µg/mL (≈ 53.9 µM)
- MIC50 (Candida albicans [6]): 7.8 µg/mL (≈ 27 µM)
- MIC80 (Candida albicans [6]): 15.6 µg/mL (≈ 53.9 µM)
- MIC (Trichophyton benhamiae [7]): 0.97 µg/mL (≈ 3.35 µM)
- MIC (Candida parapsilosis): 31.2 µg/mL (≈ 108 µM)
- MIC50 (Candida parapsilosis): 3.9 µg/mL (≈ 13.5 µM)
- MIC80 (Candida parapsilosis): 31.2 µg/mL (≈ 108 µM)
- MIC (Trichophyton benhamiae [8]): 1.95 µg/mL (≈ 6.74 µM)
- MIC (Cryptococcus neoformans [9]): 7.8 µg/mL (≈ 27 µM)
- MIC50 (Cryptococcus neoformans [9]): 1.9 µg/mL (≈ 6.57 µM)
- MIC80 (Cryptococcus neoformans [9]): 3.9 µg/mL (≈ 13.5 µM)
- MIC (Clavispora lusitaniae): 31.2 µg/mL (≈ 108 µM)
- MIC50 (Clavispora lusitaniae): 15.6 µg/mL (≈ 53.9 µM)
- MIC80 (Clavispora lusitaniae): 31.2 µg/mL (≈ 108 µM)
- MIC (Cryptococcus neoformans [10]): 7.8 µg/mL (≈ 27 µM)
- MIC50 (Cryptococcus neoformans [10]): 1.9 µg/mL (≈ 6.57 µM)
- MIC80 (Cryptococcus neoformans [10]): 7.8 µg/mL (≈ 27 µM)
- MIC (Trichophyton benhamiae [11]): 1.95 µg/mL (≈ 6.74 µM)
- MIC (Candida albicans [12]): 15.6 µg/mL (≈ 53.9 µM)
- MIC (Candida albicans [13]): 15.6 µg/mL (≈ 53.9 µM)
- MIC50 (Candida albicans [13]): 15.6 µg/mL (≈ 53.9 µM)
- MIC80 (Candida albicans [13]): 15.6 µg/mL (≈ 53.9 µM)
- MIC (Candida albicans [14]): 15.6 µg/mL (≈ 53.9 µM)
- MIC50 (Candida albicans [14]): 15.6 µg/mL (≈ 53.9 µM)
- MIC80 (Candida albicans [14]): 15.6 µg/mL (≈ 53.9 µM)
- MIC (Aspergillus flavus): 62.5 µg/mL (≈ 216 µM)
- MIC (Cryptococcus neoformans [15]): 3.9 µg/mL (≈ 13.5 µM)
- MIC50 (Cryptococcus neoformans [15]): 3.9 µg/mL (≈ 13.5 µM)
- MIC80 (Cryptococcus neoformans [15]): 3.9 µg/mL (≈ 13.5 µM)
- MIC (Aspergillus fumigatus): 125 µg/mL (≈ 432 µM)
- MIC (Pichia kudriavzevii): 15.6 µg/mL (≈ 53.9 µM)
- MIC50 (Pichia kudriavzevii): 7.8 µg/mL (≈ 27 µM)
- MIC80 (Pichia kudriavzevii): 15.6 µg/mL (≈ 53.9 µM)
- MIC (Cryptococcus neoformans [16]): 7.8 µg/mL (≈ 27 µM)
- MIC50 (Cryptococcus neoformans [16]): 1.9 µg/mL (≈ 6.57 µM)
- MIC80 (Cryptococcus neoformans [16]): 7.8 µg/mL (≈ 27 µM)
- MIC (Candida albicans [17]): 31.2 µg/mL (≈ 108 µM)
- MIC50 (Candida albicans [17]): 15.6 µg/mL (≈ 53.9 µM)
- MIC80 (Candida albicans [17]): 31.2 µg/mL (≈ 108 µM)
- MIC (Torulaspora delbrueckii): 31.2 µg/mL (≈ 108 µM)
- MIC50 (Torulaspora delbrueckii): 15.6 µg/mL (≈ 53.9 µM)
- MIC80 (Torulaspora delbrueckii): 31.2 µg/mL (≈ 108 µM)
- MIC (Cryptococcus neoformans [18]): 7.8 µg/mL (≈ 27 µM)
- MIC50 (Cryptococcus neoformans [18]): 3.9 µg/mL (≈ 13.5 µM)
- MIC80 (Cryptococcus neoformans [18]): 7.8 µg/mL (≈ 27 µM)
- MIC (Aspergillus niger): 62.5 µg/mL (≈ 216 µM)
- MIC (Trichophyton benhamiae [19]): 0.97 µg/mL (≈ 3.35 µM)
- MIC (Cryptococcus neoformans [20]): 3.9 µg/mL (≈ 13.5 µM)
- MIC (Trichophyton benhamiae [21]): 1.95 µg/mL (≈ 6.74 µM)
- MIC (Cryptococcus neoformans [22]): 7.8 µg/mL (≈ 27 µM)
- MIC50 (Cryptococcus neoformans [22]): 1.9 µg/mL (≈ 6.57 µM)
- MIC80 (Cryptococcus neoformans [22]): 3.9 µg/mL (≈ 13.5 µM)
- MIC (Trichophyton rubrum): 15.6 µg/mL (≈ 53.9 µM)
- MIC (Candida albicans [23]): 15.6 µg/mL (≈ 53.9 µM)
- MIC50 (Candida albicans [23]): 7.8 µg/mL (≈ 27 µM)
- MIC80 (Candida albicans [23]): 15.6 µg/mL (≈ 53.9 µM)
- MIC (Kluyveromyces marxianus): 7.8 µg/mL (≈ 27 µM)
- MIC50 (Kluyveromyces marxianus): 3.9 µg/mL (≈ 13.5 µM)
- MIC80 (Kluyveromyces marxianus): 7.8 µg/mL (≈ 27 µM)
- MIC (Cryptococcus neoformans [24]): 7.8 µg/mL (≈ 27 µM)
- MIC50 (Cryptococcus neoformans [24]): 1.9 µg/mL (≈ 6.57 µM)
- MIC80 (Cryptococcus neoformans [24]): 7.8 µg/mL (≈ 27 µM)
- MIC (Saccharomyces cerevisiae): 15.6 µg/mL (≈ 53.9 µM)
- MIC (Candida tropicalis): 15.6 µg/mL (≈ 53.9 µM)
- MIC50 (Candida tropicalis): 7.8 µg/mL (≈ 27 µM)
- MIC80 (Candida tropicalis): 15.6 µg/mL (≈ 53.9 µM)
- MIC (Cryptococcus neoformans [25]): 7.8 µg/mL (≈ 27 µM)
- MIC50 (Cryptococcus neoformans [25]): 1.9 µg/mL (≈ 6.57 µM)
- MIC80 (Cryptococcus neoformans [25]): 7.8 µg/mL (≈ 27 µM)
SMILES: O=C1NC(=S)S/C1=C\c1ccc(C(F)(F)F)cc1
- MFC (Cryptococcus neoformans [1]): 7.8 µg/mL (≈ 27 µM)
- MFC (Cryptococcus neoformans [2]): 7.8 µg/mL (≈ 27 µM)
- MFC (Nakaseomyces glabratus): 15.6 µg/mL (≈ 53.9 µM)
- MFC (Cryptococcus neoformans [4]): 31.2 µg/mL (≈ 108 µM)
- MFC (Candida albicans [5]): 31.2 µg/mL (≈ 108 µM)
- MFC (Candida albicans [6]): 31.2 µg/mL (≈ 108 µM)
- MFC (Candida parapsilosis): 62.5 µg/mL (≈ 216 µM)
- MFC (Cryptococcus neoformans [9]): 7.8 µg/mL (≈ 27 µM)
- MFC (Clavispora lusitaniae): 62.5 µg/mL (≈ 216 µM)
- MFC (Cryptococcus neoformans [10]): 12.5 µg/mL (≈ 43.2 µM)
- MFC (Candida albicans [13]): 31.2 µg/mL (≈ 108 µM)
- MFC (Candida albicans [14]): 31.2 µg/mL (≈ 108 µM)
- MFC (Cryptococcus neoformans [15]): 7.8 µg/mL (≈ 27 µM)
- MFC (Pichia kudriavzevii): 31.2 µg/mL (≈ 108 µM)
- MFC (Cryptococcus neoformans [16]): 15.6 µg/mL (≈ 53.9 µM)
- MFC (Candida albicans [17]): 62.5 µg/mL (≈ 216 µM)
- MFC (Torulaspora delbrueckii): 62.5 µg/mL (≈ 216 µM)
- MFC (Cryptococcus neoformans [18]; read-out: MFC): 15.6 µg/mL (≈ 53.9 µM)
- MFC (Cryptococcus neoformans [22]): 7.8 µg/mL (≈ 27 µM)
- MFC (Candida albicans [23]): 62.5 µg/mL (≈ 216 µM)
- MFC (Kluyveromyces marxianus): 15.6 µg/mL (≈ 53.9 µM)
- MFC (Cryptococcus neoformans [24]): 7.8 µg/mL (≈ 27 µM)
- MFC (Candida tropicalis): 31.2 µg/mL (≈ 108 µM)
- MFC (Cryptococcus neoformans [25]): 7.8 µg/mL (≈ 27 µM)
